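Five concentrations, 48 hours, 96-well plates. GI50 is the concentration that inhibits growth by half. TGI is the concentration that stops growth completely.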

Test systems include SK-OV-3 ovarian; A498 renal; SNB-75 CNS; SW-620 colon; IGROV1 ovarian; HT29 colon; COLO 205 colon; OVCAR-8 ovarian; HL-60(TB) leukemia; DU-145 prostate.
Common to all, as to experiment: NCI-60 cell line screen, 48 h

For the molecule `Cc1cccc(NC(=O)C(=O)C(C2OC(=O)c3ccccc32)[N+](=O)[O-])c1C` (centres undefined), the TGI was 26.7 µM with SK-OV-3 ovarian; 32 µM in the assay on A498 renal; 19.7 µM with SNB-75 CNS; 20.9 µM with SW-620 colon; 27.7 µM in the assay with IGROV1 ovarian; 35.1 µM in the assay on HT29 colon. Further, the TGI in the assay on COLO 205 colon came out at 29.1 µM; in the assay with OVCAR-8 ovarian, 26.8 µM; in the assay with HL-60(TB) leukemia, 6.94 µM.
`O=C(/C=C/c1ccc(Cl)c(Cl)c1)c1ccccc1Cl`: the TGI is 57.8 µM in the assay on SK-OV-3 ovarian; 31.4 µM in the assay with A498 renal; 27.5 µM in the assay with SNB-75 CNS; 9.16 µM with SW-620 colon; 24.2 µM in the assay with IGROV1 ovarian; 12.8 µM in the assay with HT29 colon. For the same molecule, the TGI is 30.6 µM in the assay with COLO 205 colon, 11.8 µM in the assay with OVCAR-8 ovarian and 16.7 µM in the assay with HL-60(TB) leukemia.
`Cc1ccc2c(c1)-c1c3c(nn1C)-c1ccccc1SC3O2` (centres undefined): the TGI with SK-OV-3 ovarian, in the assay on A498 renal, with SNB-75 CNS, with SW-620 colon, with IGROV1 ovarian and in the assay on HT29 colon was over 100 µM each time. In addition, the TGI in the assay on COLO 205 colon, with OVCAR-8 ovarian and with HL-60(TB) leukemia was over 100 µM throughout.
As to `N#Cc1c2ccccc2c(Cc2ccc3c(c2)OCCOCCOCCOCCOCCO3)c2ccccc12`, the TGI in the assay with SK-OV-3 ovarian came out at 27.9 µM; in the assay with A498 renal, 27.6 µM; in the assay with SW-620 colon, 32.1 µM; in the assay on IGROV1 ovarian it was 19.5 µM; in the assay on OVCAR-8 ovarian it was 18.3 µM.
As to `O=S1(=O)c2ccccc2N(c2ccccc2)c2nnnn21`, the TGI is over 100 µM with SK-OV-3 ovarian; 55.4 µM in the assay on A498 renal; 53.6 µM with SW-620 colon; over 100 µM in the assay with IGROV1 ovarian; 67.8 µM with HT29 colon; 48.5 µM with COLO 205 colon. Moreover, the TGI in the assay on OVCAR-8 ovarian is over 100 µM; in the assay on HL-60(TB) leukemia, 33.6 µM; in the assay on DU-145 prostate it was over 100 µM.
Consider `CN(C)NC(=O)/C(=C/c1ccc(Cl)cc1)NC(=O)c1ccccc1`, for which the TGI with SK-OV-3 ovarian, in the assay on A498 renal, in the assay with SNB-75 CNS, in the assay with IGROV1 ovarian, with HT29 colon and with COLO 205 colon was over 100 µM each time. Further, the TGI in the assay on OVCAR-8 ovarian and in the assay on HL-60(TB) leukemia was over 100 µM throughout.
Turning to `CC(=O)[CH-]C(=O)c1ccccc1.CC(=O)[CH-]C(=O)c1ccccc1.Cl.[O-]c1ccnc2ccccc12.[O-]c1ccnc2ccccc12.[Ti+4]`, the GI50 with SK-OV-3 ovarian, with A498 renal, with SNB-75 CNS, in the assay on SW-620 colon, in the assay with IGROV1 ovarian and in the assay with HT29 colon was over 100 µM throughout. Besides, the GI50 with COLO 205 colon, with OVCAR-8 ovarian and in the assay with HL-60(TB) leukemia was over 100 µM each time. Besides, the TGI with SK-OV-3 ovarian, with A498 renal, with SNB-75 CNS, in the assay on SW-620 colon, in the assay with IGROV1 ovarian and in the assay on HT29 colon was over 100 µM in each case. Moreover, the TGI in the assay with COLO 205 colon, in the assay with OVCAR-8 ovarian and in the assay on HL-60(TB) leukemia was over 100 µM each time.
Turning to `C[P+]1(Cc2ccccc2)CCCC1`, the TGI with SK-OV-3 ovarian, in the assay on A498 renal, with SNB-75 CNS, in the assay on SW-620 colon, in the assay with IGROV1 ovarian and in the assay with HT29 colon was over 100 µM in each case. For the same molecule, the TGI in the assay on COLO 205 colon, with OVCAR-8 ovarian and with HL-60(TB) leukemia was over 100 µM throughout.
For `CN(C)NC1=C([N+](=O)[O-])C=NN(c2ccccc2)C1`, the TGI was found to be 3.46 µM with SK-OV-3 ovarian; 36 µM with A498 renal; 3.34 µM with SNB-75 CNS; 3.67 µM in the assay on SW-620 colon; 3.9 µM with IGROV1 ovarian; 3.66 µM in the assay with HT29 colon. For the same molecule, the results for the TGI in the assay on COLO 205 colon, in the assay with OVCAR-8 ovarian and with HL-60(TB) leukemia were 3.27 µM, 4.16 µM and 4.62 µM, respectively.
As to `c1ccc(C2=NOC3C4CCC(C4)C23)cc1` (centres undefined), the TGI with SK-OV-3 ovarian, with A498 renal, in the assay with SNB-75 CNS, with SW-620 colon, with IGROV1 ovarian and with HT29 colon was over 100 µM in each case. Moreover, the TGI with COLO 205 colon, in the assay with OVCAR-8 ovarian and in the assay with HL-60(TB) leukemia was over 100 µM each time.
`Cc1ccc(S(=O)(=O)OCOS(=O)(=O)c2ccc(C)cc2)cc1`: the TGI with SK-OV-3 ovarian, with SW-620 colon, with IGROV1 ovarian, in the assay with COLO 205 colon, in the assay with OVCAR-8 ovarian and in the assay on HL-60(TB) leukemia was over 100 µM in each case.
Take `CC(=O)OCC1OC(n2cccnc2=O)C(OC(C)=O)C1OC(C)=O` (centres undefined): the TGI in the assay on SK-OV-3 ovarian, in the assay with A498 renal, in the assay on SNB-75 CNS, in the assay on SW-620 colon, with HT29 colon and in the assay on COLO 205 colon was over 100 µM throughout. Also, the TGI in the assay on OVCAR-8 ovarian and in the assay on HL-60(TB) leukemia was over 100 µM in each case.
Turning to `CC1(C)C(=O)OC(n2cc(F)c(=O)[nH]c2=O)C1=O` (centres undefined), the TGI in the assay with SK-OV-3 ovarian, with A498 renal, in the assay with SNB-75 CNS, in the assay with SW-620 colon, with HT29 colon and with COLO 205 colon was over 100 µM each time. Further, the TGI in the assay on OVCAR-8 ovarian and with HL-60(TB) leukemia was over 100 µM throughout.
`CCOC(=O)c1cc(=O)n(C)c(=O)n1C`: the TGI with SK-OV-3 ovarian, in the assay with A498 renal, in the assay with SNB-75 CNS, with SW-620 colon, with IGROV1 ovarian and in the assay with HT29 colon was over 100 µM in each case. The TGI in the assay on COLO 205 colon and in the assay on OVCAR-8 ovarian was over 100 µM in each case.

These data come from PubChem BioAssay (NCI).
